# Results taken from ChEMBL document CHEMBL4145688, “Potent and Orally Bioavailable Inverse Agonists of RORγt Resulting from Structure-Based Design” (J Med Chem, 2018).
# Legend:
# [1] = target: T1, Nuclear receptor ROR-gamma (Homo sapiens, UniProt P51449)
# T1 sequence (P51449 whole entry): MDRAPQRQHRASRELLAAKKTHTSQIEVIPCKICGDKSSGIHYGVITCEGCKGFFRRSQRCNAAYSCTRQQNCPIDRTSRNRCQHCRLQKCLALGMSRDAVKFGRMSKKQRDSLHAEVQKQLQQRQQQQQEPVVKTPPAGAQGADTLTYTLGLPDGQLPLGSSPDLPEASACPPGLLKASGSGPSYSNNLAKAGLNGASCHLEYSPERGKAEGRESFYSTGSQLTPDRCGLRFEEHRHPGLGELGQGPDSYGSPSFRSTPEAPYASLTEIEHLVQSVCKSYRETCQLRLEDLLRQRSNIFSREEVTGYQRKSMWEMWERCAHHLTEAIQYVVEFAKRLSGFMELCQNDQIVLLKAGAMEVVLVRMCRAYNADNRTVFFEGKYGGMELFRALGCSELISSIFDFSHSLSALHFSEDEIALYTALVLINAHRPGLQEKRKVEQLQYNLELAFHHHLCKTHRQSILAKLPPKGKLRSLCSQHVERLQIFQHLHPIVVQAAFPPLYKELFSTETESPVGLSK
# Description: Displacement of [3H]-2-(4-(ethylsulfonyl)phenyl)-N-(4-(2-(methoxymethyl)phenyl)thiophen-2-yl)acetamide from purified N-(HN)6-GST-TCS-human RORgammat (258 to 518 residues) incubated for 16 hrs by scintillation proximity assay
# [2] = Intrinsic clearance in rat hepatocytes assessed per million cells; format: ADME, cell-based, Hepatocyte; settings: read-out: CLH
# [3] = Cytotoxicity in human Th17 cells assessed as effect on cell viability by cell-titer-Glo luminescent cell viability assay relative to control; format: cell-based; settings: read-out: Efficacy
# [4] = Distribution coefficient between 1-octanol and aqueous phosphate buffer, logD of the compound in pH 7.4 buffer; format: physicochemical; settings: 1-octanol/aqueous phosphate buffer
# [5] = target: T1, Nuclear receptor ROR-gamma; assay: Inverse agonist activity at RORgammat in human TH17 cells assessed as inhibition of IL17 release incubated for 4 days by HTRF assay; format: cell-based
# [6] = target: T1, Nuclear receptor ROR-gamma; remark: listed apart in the source
# [7] = Selectivity index, ratio of cytotoxicity in human Th17 cells to IC50 for inverse agonist activity at RORgammat in human TH17 cells assessed as inhibition of IL17 release; format: toxicity, cell-based
# [8] = Permeability from apical to basolateral side in human Caco2 cells; format: ADME, cell-based; settings: for Papp A→B: Caco-2, read-out: permeability
# [9] = Efflux ratio of permeability in human Caco2 cells; format: ADME, cell-based; settings: Caco-2
# [10] = Unbound fraction in human plasma by equilibrium dialysis; format: ADME, cell-free
# [11] = Permeability in human Caco2 cells assessed as drug recovery; format: ADME, cell-based; settings: Caco-2, read-out: Drug recovery
# physchem = settings: aqueous buffer, pH 7.4
# Description: Solubility in aqueous buffer at pH 7.4
# [12] = Permeability from basolateral to apical side in human Caco2 cells; format: ADME, cell-based; settings: for Papp B→A: Caco-2, read-out: permeability
# [13] = Oral absorption in Han Wistar rat at 1 mg/kg; format: ADME, organism-based; settings: in vivo, read-out: Fabs
# [14] = Oral bioavailability in Han Wistar rat at 1 mg/kg; format: ADME, organism-based; settings: in vivo
# [15] = Volume of distribution at steady state in Han Wistar rat at 0.5 mg/kg, iv or 1 mg/kg, po; format: ADME, organism-based; settings: in vivo, read-out: Vdss
# [16] = Clearance in Han Wistar rat at 0.5 mg/kg, iv or 1 mg/kg, po; format: ADME, organism-based; settings: in vivo
# [17] = Half life in Han Wistar rat at 0.5 mg/kg, iv or 1 mg/kg, po; format: ADME, organism-based; settings: in vivo
# hERG (KCNH2) = hERG (KCNH2) (Homo sapiens, UniProt Q12809); assay: Inhibition of human ERG at 11 uM
# [18] = Intrinsic clearance in human hepatocytes assessed per million cells; format: ADME, cell-based, Hepatocyte; settings: read-out: CLH
# Chain of hERG (KCNH2) (Q12809 whole entry): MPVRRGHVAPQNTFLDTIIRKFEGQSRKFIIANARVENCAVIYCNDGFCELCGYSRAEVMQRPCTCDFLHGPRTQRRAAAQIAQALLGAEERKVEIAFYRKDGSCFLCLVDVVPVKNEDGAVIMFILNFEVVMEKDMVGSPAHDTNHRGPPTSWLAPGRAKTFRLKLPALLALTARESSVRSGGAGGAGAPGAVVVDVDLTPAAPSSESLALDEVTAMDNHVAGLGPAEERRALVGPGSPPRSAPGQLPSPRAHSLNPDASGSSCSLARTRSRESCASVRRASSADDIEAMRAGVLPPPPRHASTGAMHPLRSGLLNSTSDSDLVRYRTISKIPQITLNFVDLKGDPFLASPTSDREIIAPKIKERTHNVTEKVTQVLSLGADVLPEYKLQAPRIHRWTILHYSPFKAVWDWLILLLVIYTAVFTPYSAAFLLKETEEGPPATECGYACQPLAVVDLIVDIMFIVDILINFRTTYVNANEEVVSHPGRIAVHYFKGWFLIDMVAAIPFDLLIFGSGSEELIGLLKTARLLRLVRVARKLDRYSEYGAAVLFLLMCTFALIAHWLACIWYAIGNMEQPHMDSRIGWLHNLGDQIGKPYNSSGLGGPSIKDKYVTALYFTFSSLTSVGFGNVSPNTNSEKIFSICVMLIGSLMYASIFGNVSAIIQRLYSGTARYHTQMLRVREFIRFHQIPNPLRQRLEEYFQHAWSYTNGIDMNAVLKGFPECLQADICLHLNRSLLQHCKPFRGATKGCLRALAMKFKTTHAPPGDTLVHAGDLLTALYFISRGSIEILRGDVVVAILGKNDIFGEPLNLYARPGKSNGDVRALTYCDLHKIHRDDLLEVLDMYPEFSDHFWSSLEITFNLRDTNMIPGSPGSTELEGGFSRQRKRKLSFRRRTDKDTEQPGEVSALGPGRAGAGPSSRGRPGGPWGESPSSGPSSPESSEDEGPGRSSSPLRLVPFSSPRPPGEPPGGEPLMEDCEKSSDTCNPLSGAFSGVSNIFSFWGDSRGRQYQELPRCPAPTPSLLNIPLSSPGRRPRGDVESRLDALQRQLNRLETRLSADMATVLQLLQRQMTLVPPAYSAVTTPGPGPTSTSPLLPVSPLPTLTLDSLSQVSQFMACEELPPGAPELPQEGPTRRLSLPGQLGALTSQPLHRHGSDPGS
IC50 [1] [nM],hepatocyte CLint [2] [µL/min/1e6 cells],logD [4],IC50 [5] [nM],IC50 [6] [nM],SMILES,Emax [3] [%],further results
29,125,≥ 4,–,–,CCS(=O)(=O)c1ccc(CC(=O)Nc2cc(-c3cccnc3OCCc3ccccc3)cs2)cc1,70,–
18,17,–,100,50,CCS(=O)(=O)c1ccc(CC(=O)Nc2cc(-c3cccnc3OCC(F)(F)F)cs2)cc1,–,–
1290,–,3.4,–,440,CC[S+]([O-])c1ccc(CC(=O)Nc2cc(-c3cc(C#N)cnc3OC)cs2)cc1 (stereo not drawn),–,–
6,9.1,4.6,32,75,CCS(=O)(=O)c1ccc(C(NC(C)=O)C(=O)Nc2cc(-c3cccnc3OCc3ccc(OC(F)(F)F)cc3)cs2)cc1 (stereo not drawn),–,–
1160,–,3.7,–,780,CCS(=O)(=O)c1ccc(CC(=O)Nc2cc(-c3ccc(C#N)cc3Cl)cs2)cc1,–,–
150,28,≥ 4,–,80,CCOc1ncccc1-c1csc(NC(=O)Cc2ccc(S(=O)(=O)CC)cc2)c1,–,–
50,–,3.8,–,60,CCS(=O)(=O)c1ccc(CC(=O)Nc2cc(-c3cc(C#N)ccc3Cl)cs2)cc1,–,–
14,> 300,≥ 4,35,21,CCS(=O)(=O)c1ccc(CC(=O)Nc2cc(-c3cccnc3OCc3ccc(C(=O)OC)cc3)cs2)cc1,–,selectivity ratio [7]: 100
340,–,2.8,–,120,CCS(=N)(=O)c1ccc(CC(=O)Nc2cc(-c3cc(C#N)ccc3OC)cs2)cc1 (stereo not drawn),–,–
59,80,≥ 4,–,–,CCCOc1ncccc1-c1csc(NC(=O)Cc2ccc(S(=O)(=O)CC)cc2)c1,40,–
1850,–,2.8,–,700,CCS(=O)(=O)c1ccc(CC(=O)Nc2cc(-c3cncnc3OC)cs2)cc1,–,–
19,281,≥ 4,–,–,CCS(=O)(=O)c1ccc(CC(=O)Nc2cc(-c3cccnc3OCc3cccc(C#N)c3)cs2)cc1,50,–
11,45,≥ 4,25,29,CCS(=O)(=O)c1ccc(CC(=O)Nc2cc(-c3cccnc3OC/C=C/c3ccccc3)cs2)cc1,40,selectivity ratio [7]: 100
50,–,> 4,–,90,CCS(=O)(=O)c1ccc(CC(=O)Nc2cc(-c3cc(Cl)cc(C#N)c3)cs2)cc1,–,–
2,–,4.5,6,23,CCS(=O)(=O)c1ccc(CC(=O)Nc2cc(-c3cccc(Cl)c3)c(C(=O)c3ccccc3Cl)s2)cc1,40,Papp A→B [8]: < 0.001 ×10⁻⁶ cm/s; efflux ratio [9]: > 324; fraction unbound [10]: < 0.002; recovery [11]: 52%; solubility (physchem): < 0.1 µM; Papp B→A [12]: 0.6 ×10⁻⁶ cm/s
66,10.4,3.4,640,55,CCS(=O)(=O)c1ccc(C(NC(C)=O)C(=O)Nc2cc(-c3cccnc3Oc3ccc(C#N)cc3)cs2)cc1 (stereo not drawn),–,–
46,196,≥ 4,–,–,CCS(=O)(=O)c1ccc(CC(=O)Nc2cc(-c3cccnc3Oc3ccccc3)cs2)cc1,50,–

IC50 [1] [nM],hepatocyte CLint [2] [µL/min/1e6 cells],logD [4],IC50 [5] [nM],IC50 [6] [nM],SMILES,Emax [3] [%],further results
20,–,3.6,> 3300,30,CCS(=O)(=O)c1ccc(CC(=O)Nc2cc(-c3cc(C#N)ccc3OC)cs2)cc1,–,Papp A→B [8]: 1.6 ×10⁻⁶ cm/s; efflux ratio [9]: 7.6; fraction unbound [10]: 0.001; recovery [11]: 41%; solubility (physchem): 0.43 µM; Papp B→A [12]: 12 ×10⁻⁶ cm/s
30,–,3.5,> 3300,40,CCS(=O)(=O)c1ccc(CC(=O)Nc2cc(-c3cc(C#N)cnc3OC)cs2)cc1,–,permeability ([8]; Caco-2): 2.6 ×10⁻⁶ cm/s; fraction unbound [10]: 0.0009; recovery [11]: 44%; permeability ([12]; Caco-2): 17.1 ×10⁻⁶ cm/s
7,24,> 4,–,–,CCS(=O)(=O)c1ccc(C(NC(C)=O)C(=O)Nc2cc(-c3cccnc3OCc3ccccc3)cs2)cc1 (stereo not drawn),–,–
70,–,3.5,> 3300,40,CNS(=O)(=O)c1ccc(CC(=O)Nc2cc(-c3cc(C#N)cnc3OC)cs2)cc1,–,Papp A→B [8]: 0.65 ×10⁻⁶ cm/s; efflux ratio [9]: 40; fraction unbound [10]: < 0.001; recovery [11]: 55%; solubility (physchem): 0.34 µM; Papp B→A [12]: 26 ×10⁻⁶ cm/s
10,286,≥ 4,100,30,CCS(=O)(=O)c1ccc(CC(=O)Nc2cc(-c3cccnc3OCc3ccc(C#N)cc3)cs2)cc1,50,–
17,104,≥ 4,> 3300,–,CCS(=O)(=O)c1ccc(CC(=O)Nc2cc(-c3cccnc3OCCCc3ccccc3)cs2)cc1,30,–
–,–,3.3,–,–,CCS(=O)(=O)c1ccc(C(NC(C)=O)C(=O)Nc2cc(-c3cc(C#N)cc(F)c3OC)cs2)cc1 (stereo not drawn),–,Papp A→B [8]: 0.3 ×10⁻⁶ cm/s; Fa [13]: 19%; bioavailability [14]: 18%; Vd [15]: 0.34 L/kg; solubility (physchem): 200 µM; Papp B→A [12]: 18 ×10⁻⁶ cm/s
3250,–,3.2,–,3250,CCS(=O)(=O)N1CCC(CC(=O)Nc2cc(-c3cc(C#N)cnc3OC)cs2)CC1,–,–
20,11.3,3.9,700,30,CCS(=O)(=O)c1ccc(CC(=O)Nc2cc(-c3cc(C#N)cc(F)c3OC)cs2)cc1,60,selectivity ratio [7]: < 10; Papp A→B [8]: 1.8 ×10⁻⁶ cm/s; clearance [16]: 5.5 mL/min/kg; efflux ratio [9]: 3.9; Fa [13]: 92%; bioavailability [14]: 85%; half-life [17]: 72 min; inhibition at 11 µM (hERG (KCNH2)): 43%; fraction unbound [10]: 0.0017 to 0.002; hepatocyte CLint [18]: 5.6 µL/min/1e6 cells; recovery [11]: 41%; Vd [15]: 0.48 L/kg; solubility (physchem): 0.4 to 0.6 µM; Papp B→A [12]: 7.1 ×10⁻⁶ cm/s
20,128,> 4,–,–,CCS(=O)(=O)c1ccc(CC(=O)Nc2cc(-c3cccnc3OCc3ccccc3)cs2)cc1,30,selectivity ratio [7]: < 10; fraction unbound [10]: 0.0003; solubility (physchem): 0.42 µM
–,–,> 4.1,–,–,CCS(=O)(=O)c1ccc(CC(=O)Nc2cc(-c3cccc(Cl)c3)cs2)cc1,–,–
410,13,3.6,–,110,CCS(=O)(=O)c1ccc(CC(=O)Nc2cc(-c3cccnc3OC)cs2)cc1,–,–
14,4,3.3,990,67,CCS(=O)(=O)c1ccc(C(NC(C)=O)C(=O)Nc2cc(-c3cc(C#N)cnc3OC)cs2)cc1 (stereo not drawn),–,–
88,28,3.6,190,–,CCS(=O)(=O)c1ccc(CC(=O)Nc2cc(-c3cccnc3Oc3ccc(C#N)cc3)cs2)cc1,–,–
9,–,> 4.2,180,22,CCS(=O)(=O)c1ccc(CC(=O)Nc2nc(-c3cccc(Cl)c3)c(C(=O)c3ccccc3Cl)s2)cc1,–,–
75,11,3.2,1690,452,CCS(=O)(=O)c1ccc(C(N)C(=O)Nc2cc(-c3cc(C#N)cc(F)c3OC)cs2)cc1 (stereo not drawn),–,–
